# Tests used:
# Experiment in all cases: relative viability (nuclei count vs DMSO), 5 days (fraction); higher = more cells survive
# SK-LU-1 = tested on: SK-LU-1
# How it was run: (§1)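 Lung cancer cell lines, seeded in 1536-well plates, were treated the following day by pin tool with a single drug or with five library-drug doses (not always all listed) in √10 steps on top of a fixed anchor-drug dose. Cells were fixed and nuclei stained in one step after 5 days, and nuclei were counted. Relative viability is the nuclei count for treated wells divided by that for vehicle wells, reported as medians of duplicate plates.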
# NCI-H727 = tested on: NCI-H727
# How it was run: as §1
# NCI-H2023 = tested on: NCI-H2023
# How it was run: as §1
# BEN = tested on: BEN
# How it was run: as §1
# EKVX = tested on: EKVX
# How it was run: as §1
# LK-2 = tested on: LK-2
# How it was run: as §1
# EMC-BAC-2 = tested on: EMC-BAC-2
# How it was run: as §1
# ABC-1 = tested on: ABC-1
# How it was run: as §1
# CAL-12T = tested on: CAL-12T
# How it was run: as §1
# NCI-H1437 = tested on: NCI-H1437
# How it was run: as §1
# LOU-NH91 = tested on: LOU-NH91
# How it was run: as §1
# EPLC-272H = tested on: EPLC-272H
# How it was run: as §1
structure (smiles),measurement,setting,value
Cc1cn(-c2cc(NC(=O)c3ccc(C)c(Nc4nccc(-c5cccnc5)n4)c3)cc(C(F)(F)F)c2)cn1 [Nilotinib] + CS(=O)(=O)CCNCc1ccc(-c2ccc3ncnc(Nc4ccc(OCc5cccc(F)c5)c(Cl)c4)c3c2)o1 [Lapatinib] (partner 2 µM),relative viability,SK-LU-1; first compound 0.01 µM,1.08
same,relative viability,SK-LU-1; first compound 0.03162 µM,0.558
same,relative viability,SK-LU-1; first compound 0.1 µM,0.6
same,relative viability,NCI-H727; first compound 0.001 µM,0.858
same,relative viability,NCI-H727; first compound 0.01 µM,0.985
same,relative viability,NCI-H727; first compound 0.03162 µM,0.591
same,relative viability,NCI-H727; first compound 0.1 µM,0.368
same,relative viability,NCI-H2023; first compound 0.001 µM,0.702
same,relative viability,NCI-H2023; first compound 0.003162 µM,0.611
same,relative viability,NCI-H2023; first compound 0.01 µM,0.739
same,relative viability,NCI-H2023; first compound 0.03162 µM,0.775
same,relative viability,NCI-H2023; first compound 0.1 µM,0.15
same,relative viability,BEN; first compound 0.001 µM,0.759
same,relative viability,BEN; first compound 0.003162 µM,0.74
same,relative viability,BEN; first compound 0.01 µM,0.757
same,relative viability,BEN; first compound 0.03162 µM,0.518
same,relative viability,BEN; first compound 0.1 µM,0.508
same,relative viability,EKVX; first compound 0.001 µM,0.211
same,relative viability,EKVX; first compound 0.003162 µM,0.195
same,relative viability,EKVX; first compound 0.01 µM,0.214
same,relative viability,EKVX; first compound 0.03162 µM,0.187
same,relative viability,EKVX; first compound 0.1 µM,0.204
same,relative viability,LK-2; first compound 0.001 µM,0.854
same,relative viability,LK-2; first compound 0.003162 µM,0.754
same,relative viability,LK-2; first compound 0.01 µM,1.05
same,relative viability,LK-2; first compound 0.03162 µM,0.875
same,relative viability,LK-2; first compound 0.1 µM,0.822
same,relative viability,EMC-BAC-2; first compound 0.001 µM,0.834
same,relative viability,EMC-BAC-2; first compound 0.003162 µM,0.952
same,relative viability,EMC-BAC-2; first compound 0.01 µM,0.924
same,relative viability,EMC-BAC-2; first compound 0.03162 µM,0.784
same,relative viability,EMC-BAC-2; first compound 0.1 µM,0.606
same,relative viability,ABC-1; first compound 0.001 µM,0.925
same,relative viability,ABC-1; first compound 0.003162 µM,1.09
same,relative viability,ABC-1; first compound 0.01 µM,1.35
same,relative viability,ABC-1; first compound 0.03162 µM,0.955
same,relative viability,ABC-1; first compound 0.1 µM,0.952
same,relative viability,CAL-12T; first compound 0.001 µM,0.729
same,relative viability,CAL-12T; first compound 0.01 µM,0.748
same,relative viability,CAL-12T; first compound 0.03162 µM,0.839
same,relative viability,CAL-12T; first compound 0.1 µM,0.74
same,relative viability,NCI-H1437; first compound 0.001 µM,0.687
same,relative viability,NCI-H1437; first compound 0.003162 µM,0.973
same,relative viability,NCI-H1437; first compound 0.01 µM,0.858
same,relative viability,NCI-H1437; first compound 0.03162 µM,0.614
same,relative viability,NCI-H1437; first compound 0.1 µM,0.203
same,relative viability,LOU-NH91; first compound 0.001 µM,0.76
same,relative viability,LOU-NH91; first compound 0.003162 µM,0.679
same,relative viability,LOU-NH91; first compound 0.01 µM,0.649
same,relative viability,LOU-NH91; first compound 0.03162 µM,0.761
same,relative viability,LOU-NH91; first compound 0.1 µM,0.747
same,relative viability,EPLC-272H; first compound 0.001 µM,0.877
same,relative viability,EPLC-272H; first compound 0.003162 µM,1.23
same,relative viability,EPLC-272H; first compound 0.01 µM,0.775
same,relative viability,EPLC-272H; first compound 0.03162 µM,0.976
same,relative viability,EPLC-272H; first compound 0.1 µM,0.402
